Experimental data taken from patent US20260078135A1, “POLYCYCLIC QUINAZOLINES FOR INHIBITION OF ERBB2” (Enliven Inc., priority 2022, published 2026).
Where a name gives a salt, the structure may show the parent alone.

Experiments:
Ba/F3 ERBB2 YVMA = Ba/F3 ERBB2 YVMA (Homo sapiens, UniProt P04626, DUP772-775, cells depend on it); assay: Cell viability assay (CellTiter Glo), Ba/F3 cells engineered to express ERBB2 YVMA; assay type: cell-based, mouse; settings: Ba/F3 cells expressing human ERBB2 YVMA mutant, 72 hours, read-out: Ba/F3 ERBB2 YVMA, IC50
Procedure: Cells were treated with compounds, and cell viability was measured as a metric of kinase inhibition.
BT-474, A431, MDA-MB-175VII, NCI-H1781, MCF7, and Ba/F3 cell lines were tested. The Ba/F3 cell line is IL-3-dependent mouse cell line derived from the C3H mouse strain. Ba/F3 cell lines were engineered to express human ERBB2 or EGFR kinases, rendering the cells IL-3 independent. The lines were generated via retroviral transduction utilizing a Moloney murine leukemia virus (MMLV) promoter, and constructs are stably integrated into the cell genome. The sequences of the ERBB2 and EGFR genes used were NCBI Reference Sequences NM_004448.3 and NM_005228.3, respectively.
BT-474, A431, MDA-MB-175VII, NCI-H1781 and MCF7 cells were grown in the appropriate growth medium as described in Table B2 below, and harvested at 50-80% confluence. BT-474, A431, MDA-MB-175VII, NCI-H1781 and MCF7 cells were counted and seeded at 2,000 or 1,500 cells per well in 384-well tissue culture plates (see Table B2). Similarly, Ba/F3 cell lines engineered to express EGFR, ERBB2, or ERBB2 mutants were grown, harvested, counted and seeded at 3000 cells per well in 96-well plates. A subset of wells contained media only (low control, “LC”).
Table B1 provides the growth media and number of cells seeded per well for the each cell line.
Compounds were dissolved in DMSO and serially diluted. Serially-diluted compound or a DMSO only control (high control, “HC”) was added to the plated cells in each well. Compounds were tested at concentrations of about 10 μM to 0.51 nM, using three-fold dilutions. The final proportion of DMSO never exceeded 0.1%.
Plates were placed in a 37° C., 5% CO2 incubator for 72 hours. Plates were then removed from the incubator and equilibrated for 15 minutes at room temperature. 40 μl of CellTiter Glo reagent (Promega) was added to measure the relative level of metabolically active cells by quantifying intracellular ATP concentrations. Plates were incubated for 30 minutes at room temperature, and luminescence was measured. Percent viability was normalized to a vehicle control only using the following formula: % viability=100×(Lumsample−LumLC)/(LumHC−LumLC). Graphical curves were fitted using a nonlinear regression model with a sigmoidal dose response.

[1] = molecular target: T1, phosphorylated ERBB2 (pERBB2) (Homo sapiens, UniProt P04626); assay: Detection of phosphorylated ERBB2 (pERBB2) by ELISA in BT-474 cells; assay type: cell-based; settings: four hour incubation
T1 construct: endogenous in cells; host or cells: BT-474
Procedure, shortened: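 BT-474 cells were treated with compounds (fourfold dilutions, 10 μM to 0.01 nM final) for 4 h at 37 °C, then lysed. pERBB2 in lysates was quantified by ELISA with an HRP anti-phosphotyrosine detection antibody and TMB read at 450 nm; % relative activity was normalized to no-cell and 0.1% DMSO controls.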

[2] = molecular target: T2, phosphorylated EGFR (pEGFR) (Homo sapiens, UniProt P00533); assay: Detection of phosphorylated EGFR (pEGFR) by AlphaLISA in EGF-stimulated A431 cells; assay type: cell-based; settings: A431 cells (10% FBS), 4 hours incubation, EGF 30 ng/mL for 10 minutes
T2 construct: performed to measure phosphorylated EGFR levels using A431 cells (10% FBS); endogenous in cells; host or cells: A431
Procedure, shortened: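 pEGFR was quantified by AlphaLISA in lysates of A431 cells (10% FBS) given a 10 min pulse of EGF at 30 ng/mL after 4 h compound exposure at 37 °C. IC50 came from a four-parameter fit of % inhibition between DMSO and staurosporine controls.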

T1 sequence (P04626 23-1255): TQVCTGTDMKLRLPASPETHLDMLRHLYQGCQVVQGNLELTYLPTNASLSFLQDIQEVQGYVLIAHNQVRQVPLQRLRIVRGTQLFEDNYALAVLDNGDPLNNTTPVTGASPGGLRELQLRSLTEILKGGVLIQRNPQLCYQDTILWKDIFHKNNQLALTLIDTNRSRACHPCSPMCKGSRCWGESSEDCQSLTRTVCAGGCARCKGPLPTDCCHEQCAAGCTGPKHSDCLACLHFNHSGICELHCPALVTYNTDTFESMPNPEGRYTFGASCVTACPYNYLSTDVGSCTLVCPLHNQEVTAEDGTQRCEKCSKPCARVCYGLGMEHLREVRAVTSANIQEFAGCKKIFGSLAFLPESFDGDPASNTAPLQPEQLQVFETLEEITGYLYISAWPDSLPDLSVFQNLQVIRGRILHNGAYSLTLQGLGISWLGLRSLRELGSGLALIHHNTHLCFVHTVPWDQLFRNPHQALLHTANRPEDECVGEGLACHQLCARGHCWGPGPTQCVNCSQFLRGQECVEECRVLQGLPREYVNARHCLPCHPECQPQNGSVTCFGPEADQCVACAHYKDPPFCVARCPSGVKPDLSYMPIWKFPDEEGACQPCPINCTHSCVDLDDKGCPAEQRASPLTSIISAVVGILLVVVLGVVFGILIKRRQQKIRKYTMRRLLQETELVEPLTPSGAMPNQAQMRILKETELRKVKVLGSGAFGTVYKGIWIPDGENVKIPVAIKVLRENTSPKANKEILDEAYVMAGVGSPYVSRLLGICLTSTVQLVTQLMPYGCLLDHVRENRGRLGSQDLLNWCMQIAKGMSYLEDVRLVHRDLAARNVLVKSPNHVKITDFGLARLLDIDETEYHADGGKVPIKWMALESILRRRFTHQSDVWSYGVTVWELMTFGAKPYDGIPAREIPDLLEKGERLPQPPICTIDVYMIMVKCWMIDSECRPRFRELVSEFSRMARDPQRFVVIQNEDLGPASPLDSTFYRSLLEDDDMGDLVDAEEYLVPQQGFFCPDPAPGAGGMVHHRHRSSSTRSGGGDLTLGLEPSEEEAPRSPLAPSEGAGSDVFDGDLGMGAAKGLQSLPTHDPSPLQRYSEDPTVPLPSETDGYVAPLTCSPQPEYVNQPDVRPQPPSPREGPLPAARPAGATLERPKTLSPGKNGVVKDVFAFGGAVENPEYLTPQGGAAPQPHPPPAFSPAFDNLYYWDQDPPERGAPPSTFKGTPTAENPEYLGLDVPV
Sequence of Ba/F3 ERBB2 YVMA (P04626 with tags, fused parts or gaps DUP772-775): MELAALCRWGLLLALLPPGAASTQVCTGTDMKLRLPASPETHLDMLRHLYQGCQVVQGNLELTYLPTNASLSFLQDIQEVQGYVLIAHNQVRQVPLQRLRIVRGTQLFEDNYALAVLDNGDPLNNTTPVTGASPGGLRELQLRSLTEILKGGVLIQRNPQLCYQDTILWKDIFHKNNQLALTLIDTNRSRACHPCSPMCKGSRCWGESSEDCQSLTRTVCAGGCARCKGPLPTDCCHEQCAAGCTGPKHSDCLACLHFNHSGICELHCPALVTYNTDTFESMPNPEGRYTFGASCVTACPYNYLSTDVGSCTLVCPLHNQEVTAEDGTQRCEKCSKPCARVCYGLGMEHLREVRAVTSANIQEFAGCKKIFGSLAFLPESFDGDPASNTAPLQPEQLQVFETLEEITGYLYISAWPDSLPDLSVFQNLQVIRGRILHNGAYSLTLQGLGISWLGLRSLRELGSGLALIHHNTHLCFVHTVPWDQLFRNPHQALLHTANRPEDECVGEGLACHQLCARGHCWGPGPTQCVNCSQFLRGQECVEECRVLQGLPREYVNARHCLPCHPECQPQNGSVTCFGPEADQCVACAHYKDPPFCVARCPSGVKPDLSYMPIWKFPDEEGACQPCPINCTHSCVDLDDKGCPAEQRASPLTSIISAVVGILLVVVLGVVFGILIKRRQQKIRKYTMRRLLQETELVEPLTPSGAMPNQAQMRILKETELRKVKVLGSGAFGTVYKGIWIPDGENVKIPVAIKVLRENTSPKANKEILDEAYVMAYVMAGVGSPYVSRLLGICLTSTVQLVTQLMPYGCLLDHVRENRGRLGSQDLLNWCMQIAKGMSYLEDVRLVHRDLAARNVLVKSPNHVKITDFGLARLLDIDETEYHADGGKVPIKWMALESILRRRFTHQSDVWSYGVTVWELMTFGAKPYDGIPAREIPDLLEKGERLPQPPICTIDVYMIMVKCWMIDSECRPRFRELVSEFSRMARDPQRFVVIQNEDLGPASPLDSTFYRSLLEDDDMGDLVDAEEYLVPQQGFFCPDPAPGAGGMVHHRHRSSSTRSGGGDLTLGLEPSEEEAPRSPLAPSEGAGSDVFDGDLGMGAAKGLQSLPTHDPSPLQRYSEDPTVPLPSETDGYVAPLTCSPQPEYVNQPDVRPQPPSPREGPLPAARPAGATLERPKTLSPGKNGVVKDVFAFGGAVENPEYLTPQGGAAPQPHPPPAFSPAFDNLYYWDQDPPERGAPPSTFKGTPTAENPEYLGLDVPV
T2 sequence (P00533 25-1210): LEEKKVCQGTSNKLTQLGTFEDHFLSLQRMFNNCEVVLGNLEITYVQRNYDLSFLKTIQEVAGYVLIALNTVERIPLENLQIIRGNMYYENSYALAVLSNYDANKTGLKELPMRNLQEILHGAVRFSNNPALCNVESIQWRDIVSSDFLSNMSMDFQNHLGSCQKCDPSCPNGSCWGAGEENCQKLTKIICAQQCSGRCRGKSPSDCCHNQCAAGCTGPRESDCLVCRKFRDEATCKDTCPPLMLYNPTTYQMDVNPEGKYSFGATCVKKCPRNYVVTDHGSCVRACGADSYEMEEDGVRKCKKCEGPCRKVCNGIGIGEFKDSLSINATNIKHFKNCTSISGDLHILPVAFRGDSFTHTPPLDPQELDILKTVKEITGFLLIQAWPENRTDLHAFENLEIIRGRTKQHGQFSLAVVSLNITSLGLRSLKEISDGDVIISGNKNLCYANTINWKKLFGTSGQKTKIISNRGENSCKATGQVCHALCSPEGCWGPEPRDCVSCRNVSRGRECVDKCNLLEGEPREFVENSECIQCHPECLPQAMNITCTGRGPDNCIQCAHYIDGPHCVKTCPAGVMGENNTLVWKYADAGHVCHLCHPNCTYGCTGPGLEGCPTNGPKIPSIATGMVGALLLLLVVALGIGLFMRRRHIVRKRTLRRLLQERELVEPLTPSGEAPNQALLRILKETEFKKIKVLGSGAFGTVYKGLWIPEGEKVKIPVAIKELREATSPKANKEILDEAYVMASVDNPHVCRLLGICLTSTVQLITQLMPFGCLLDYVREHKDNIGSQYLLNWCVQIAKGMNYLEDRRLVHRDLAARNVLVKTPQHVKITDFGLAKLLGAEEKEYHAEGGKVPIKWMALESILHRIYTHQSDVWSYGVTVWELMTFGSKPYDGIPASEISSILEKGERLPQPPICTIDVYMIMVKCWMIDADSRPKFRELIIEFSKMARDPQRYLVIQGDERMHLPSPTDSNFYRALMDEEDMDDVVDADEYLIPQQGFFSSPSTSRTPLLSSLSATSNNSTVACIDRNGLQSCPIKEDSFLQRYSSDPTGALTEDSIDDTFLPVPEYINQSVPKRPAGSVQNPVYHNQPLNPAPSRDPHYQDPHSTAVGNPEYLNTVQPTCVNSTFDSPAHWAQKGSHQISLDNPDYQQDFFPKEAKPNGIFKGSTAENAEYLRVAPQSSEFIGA

Row | SMILES | IC50 [1] | IC50 [2] | GI50 (Ba/F3 ERBB2 YVMA)
1 | C=CC(=O)N1CCN2C[C@H]1COc1c2ccc2ncnc(Nc3ccc(Oc4ccc5c(c4)ncn5C)c(C)c3)c12 [Compound 28, 1-((3S)-13-((3-methyl-4-((1-methyl-1H-benzo[d]imidazol-5-yl)oxy)phenyl)amino)-2,3,5,6-tetrahydro-4H-3,7-methano[1,4,7]oxadiazonino[2,3-f]quinazolin-4-yl)prop-2-en-1-one] | 417 nM | > 10000 nM | > 500 nM
2 | C=CC(=O)N1CCN2c3cc4c(Nc5ccc(Oc6ccc7c(c6)ncn7C)c(C)c5)ncnc4cc3OC[C@H]2C1 [Compound 7, (R)-1-(11-((3-methyl-4-((1-methyl-1H-benzo[d]imidazol-5-yl)oxy)phenyl)amino)-1,2,4a,5-tetrahydropyrazino[1′,2′:4,5][1,4]oxazino[3,2-g]quinazolin-3(4H)-yl)prop-2-en-1-one] | 30.7 nM | 1780 nM | 112 nM
3 | Cc1cc(Nc2ncnc3ccc4c(c23)O[C@H]2CCN(C)C[C@H]2N4)ccc1Oc1ccc2c(c1)ncn2C [Compound 125, (7aR,11aS)-9-methyl-N-(3-methyl-4-((1-methyl-1H-benzo[d]imidazol-5-yl)oxy)phenyl)-7a,8,9,10,11,11a-hexahydro-7H-pyrido[3′,4′:5,6][1,4]oxazino[2,3-f]quinazolin-1-amine] | 58 nM | > 10000 nM | 164 nM
4 | Cc1cc(Nc2ncnc3ccc4c(c23)OC[C@@H]2CN4CCN2)ccc1Oc1ccn2ncnc2c1 [Compound 49, (3S)—N-(4-([1,2,4]triazolo[1,5-a]pyridin-7-yloxy)-3-methylphenyl)-3,4,5,6-tetrahydro-2H-3,7-methano[1,4,7]oxadiazonino[2,3-f]quinazolin-13-amine] | 466 nM | > 10000 nM | > 500 nM
5 | CN(C)C/C=C/C(=O)N1CCN2c3ccc4ncnc(Nc5ccc(Oc6ccn7ncnc7c6)cc5F)c4c3OC[C@H]2C1 [Compound 119, (R,E)-1-(4-((4-([1,2,4]triazolo[1,5-a]pyridin-7-yloxy)-2-fluorophenyl)amino)-6a,7,9,10-tetrahydropyrazino[1′,2′:4,5][1,4]oxazino[2,3-f]quinazolin-8(6H)-yl)-4-(dimethylamino)but-2-en-1-one] | 29 nM | 1950 nM | 11.7 nM
6 | Cc1cc(Nc2ncnc3ccc4c(c23)OC[C@H]2CN4CCN2)ccc1Oc1ccn2ncnc2c1 [Compound 51, (3R)—N-(4-([1,2,4]triazolo[1,5-a]pyridin-7-yloxy)-3-methylphenyl)-3,4,5,6-tetrahydro-2H-3,7-methano[1,4,7]oxadiazonino[2,3-f]quinazolin-13-amine] | 128 nM | > 10000 nM | > 500 nM
7 | Cc1cc(Nc2ncnc3cnc4c(c23)OC[C@H]2CNCCN42)ccc1Oc1ccc2c(c1)ncn2C [Compound 130, (R)—N-(3-methyl-4-((1-methyl-1H-benzo[d]imidazol-5-yl)oxy)phenyl)-6,6a,7,8,9,10-hexahydropyrazino[1,2-d]pyrimido[5′,4′:4,5]pyrido[3,2-b][1,4]oxazin-4-amine] | 65 nM | > 10000 nM | 170 nM
8 | Cc1cc(Nc2ncnc3ccc4c(c23)OC[C@@H]2CN4CCN2C)ccc1Oc1ccn2ncnc2c1 [Compound 50, (3S)—N-(4-([1,2,4]triazolo[1,5-a]pyridin-7-yloxy)-3-methylphenyl)-4-methyl-3,4,5,6-tetrahydro-2H-3,7-methano[1,4,7]oxadiazonino[2,3-f]quinazolin-13-amine] | 195 nM | > 10000 nM | > 500 nM
9 | Cc1cc(Nc2ncnc3cnc4c(c23)OC[C@H]2CN(C)CCN42)ccc1Oc1cc2ncn(C)c2cn1 [Compound 128, (R)-8-methyl-N-(3-methyl-4-((3-methyl-3H-imidazo[4,5-c]pyridin-6-yl)oxy)phenyl)-6,6a,7,8,9,10-hexahydropyrazino[1,2-d]pyrimido[5′,4′:4,5]pyrido[3,2-b][1,4]oxazin-4-amine] | 35.3 nM | > 10000 nM | 211 nM

The next molecules have a lower IC50 [1] than those just listed; values first:

Row | IC50 [1] | IC50 [2] | SMILES | GI50 (Ba/F3 ERBB2 YVMA)
10 | 11.1 nM | 679 nM | Cc1cc(Nc2ncnc3ccc4c(c23)OC[C@@H]2CN(C(=O)/C=C/CN(C)C)CCN42)ccc1Oc1ccn2ncnc2c1 [Compound 19, (S,E)-1-(4-((4-([1,2,4]triazolo[1,5-a]pyridin-7-yloxy)-3-methylphenyl)amino)-6a,7,9,10-tetrahydropyrazino[1′,2′:4,5][1,4]oxazino[2,3-f]quinazolin-8(6H)-yl)-4-(dimethylamino)but-2-en-1-one formate] | 5 nM
11 | 15.2 nM | 8060 nM | CN(C)C/C=C/C(=O)N1CCN2c3ccc4ncnc(Nc5cc(F)c(Oc6ccn7ncnc7c6)cc5F)c4c3OC[C@H]2C1 [Compound 97, (R,E)-1-(4-((4-([1,2,4]triazolo[1,5-a]pyridin-7-yloxy)-2,5-difluorophenyl)amino)-6a,7,9,10-tetrahydropyrazino[1′,2′:4,5][1,4]oxazino[2,3-f]quinazolin-8(6H)-yl)-4-(dimethylamino)but-2-en-1-one] | 3.6 nM
12 | 12.8 nM | 212 nM | C=CC(=O)N1CCN2c3cc4c(Nc5ccc(Oc6ccn7ncnc7c6)c(C)c5)ncnc4cc3OC[C@@H]2C1 [Compound 3, (S)-1-(11-((4-([1,2,4]triazolo[1,5-a]pyridin-7-yloxy)-3-methylphenyl)amino)-1,2,4a,5-tetrahydropyrazino[1′,2′:4,5][1,4]oxazino[3,2-g]quinazolin-3(4H)-yl)prop-2-en-1-one] | 10.4 nM
13 | 27.2 nM | > 10000 nM | Cc1cc(Nc2ncnc3cc4c(cc23)N2CCOC[C@H]2CO4)ccc1Oc1ccc2c(c1)ncn2C [Compound 121, (S)—N-(3-methyl-4-((1-methyl-1H-benzo[d]imidazol-5-yl)oxy)phenyl)-1,2,4a,5-tetrahydro-4H-[1,4]oxazino[4′,3′:4,5][1,4]oxazino[3,2-g]quinazolin-11-amine] | 71 nM
14 | 11.5 nM | 1580 nM | C=CC(=O)N1CCN2C[C@@H]1COc1c2ccc2ncnc(Nc3ccc(Oc4ccn5ncnc5c4)c(C)c3)c12 [Compound 25, 1-((3R)-13-((4-([1,2,4]triazolo[1,5-a]pyridin-7-yloxy)-3-methylphenyl)amino)-2,3,5,6-tetrahydro-4H-3,7-methano[1,4,7]oxadiazonino[2,3-f]quinazolin-4-yl)prop-2-en-1-one] | 15.5 nM
15 | 27.4 nM | 817 nM | Cc1cc(Nc2ncnc3ccc4c(c23)OC[C@@H]2CN(C(=O)/C=C/CN(C)C)CCN42)ccc1Oc1ccc2c(c1)ncn2C [Compound 23, (S,E)-4-(dimethylamino)-1-(4-((3-methyl-4-((1-methyl-1H-benzo[d]imidazol-5-yl)oxy)phenyl)amino)-6a,7,9,10-tetrahydropyrazino[1′,2′:4,5][1,4]oxazino[2,3-f]quinazolin-8(6H)-yl)but-2-en-1-one] | 13.8 nM
16 | 5.66 nM | 381 nM | CN(C)C/C=C/C(=O)N1CCN2C[C@@H]1COc1c2ccc2ncnc(Nc3ccc(Oc4ccn5ncnc5c4)c(F)c3)c12 [Compound 76, (E)-1-((3R)-13-((4-([1,2,4]triazolo[1,5-a]pyridin-7-yloxy)-3-fluorophenyl)amino)-2,3,5,6-tetrahydro-4H-3,7-methano[1,4,7]oxadiazonino[2,3-f]quinazolin-4-yl)-4-(dimethylamino)but-2-en-1-one] | 5.86 nM
17 | 17.2 nM | 785 nM | Cc1cc(Nc2ncnc3ccc4c(c23)OC[C@H]2CN4CCN2C(=O)/C=C/C2(F)CN(C)C2)ccc1Oc1ccn2ncnc2c1 [Compound 81, (E)-1-((3R)-13-((4-([1,2,4]triazolo[1,5-a]pyridin-7-yloxy)-3-methylphenyl)amino)-2,3,5,6-tetrahydro-4H-3,7-methano[1,4,7]oxadiazonino[2,3-f]quinazolin-4-yl)-3-(3-fluoro-1-methylazetidin-3-yl)prop-2-en-1-one] | 8.51 nM
